One data set concerns human cancer cells. The settings on record: small panel of human cancer cells; cited from earlier work.
Data set [1] can be described thus: Body weight gain in high fat diet induced obesity model of Sprague-Dawley rats. The data set is classed as in vivo. The note with it: 7 mg/kg oral daily, 8 weeks. An excerpt: (§1) Induction: Selected healthy Sprague-Dawley rats were randomly assigned to control or various treatment groups (n=7). All the animals allocated to the obesity study were made experimentally obese through dietary intervention during the entire eight weeks induction period by feeding high fat diet ad libitum containing Bengal gram 32 g, Wheat floor 15 g, Yeast 1 g, Butter 2 g, Ground nut oil 8 g, Casein 5 g, Vanaspathi 20 g, Vitamin mix 05 g, Milk powder 12 g and Mineral Salt mixture 4.5 g per 100 g of high fat diet.
Treatment: Following 8 weeks of induction phase, the animals were treated orally (using oral feeding gavage) with either of the allocated test substances or vehicle daily for 8 weeks. […]
Body weights: Body weight of individual animal was recorded weekly during the entire duration of the study. Mean body weights for the treatment groups and control group were determined. The body weight gain was calculated at the end of 1st week, 4th week and 8th week after initiation of treatment in comparison to initial body weights. The percentage reduction in weight gain in the treatment groups was then calculated by comparing the weight gain in each treatment with that of control group. […]

The next data set relates to adiponectin. Description: Serum adiponectin in high fat diet induced obese rats (ELISA). The data set is classed as in vivo, Sprague-Dawley rats. The note with it: 7 mg/kg daily, 8 weeks.
Description: as §1
(§2) Treatment: Following 8 weeks of induction phase, the animals were treated orally (using oral feeding gavage) with either of the allocated test substances or vehicle daily for 8 weeks. The animals of treatment groups were supplemented with 100 mg/kg body weight of LI/PD/044B/03 or 250 mg/kg body weight of LI/PD/044B/03 or 7 mg/kg body weight of sibutramine in 10 mL of 0.5% CMC in water for further 8 weeks. The control group of animals received only the vehicle (10 mL of 0.5% CMC in water) during this period. During the treatment phase, all animals were provided with the standard rodent diet till the end of the study.
Estimation of Biomarker Adiponectin: The serum adiponectin concentration for the control and treatment groups of animals were assessed using double antibody based sandwich rat adiponectin ELISA kit. […]
(ELISA stands for enzyme-linked immunosorbent assay.)

Data set [2] in a line: Serum LDL in high fat diet induced obese rats. The settings on record: 7 mg/kg, 8 weeks. The data set is classed as in vivo, Sprague-Dawley rats.
Description: as §1, §2
Serum LDL concentration: The serum LDL levels in animals supplemented with different Treatments and control were estimated on Human Biochemistry Analyzer (German) and the results are summarized in FIG. 7B.

For ficustriol, in the data set with human cancer cells, the cytotoxic activity entry is “inactive”. For `COc1ccc2c3c(c4cc(OC)c(OC)cc4c2c1)CN1CCCC1C3O` (centres unmarked) [O-Methyltylophorinidine], in the data set with human cancer cells, the cytotoxic activity result was “potent cytotoxic activity”. Regarding `CC(C)CC(N(C)C)C1(c2ccc(Cl)cc2)CCC1` (centres unmarked) [sibutramine], in data set [1], the “reduction in body weight gain vs control group” value amounted to 40%. Moreover, in the data set on adiponectin, the “improvement in serum adiponectin concentration vs baseline” value stood at 6.3%. In addition, the “serum LDL concentrations” value in data set [2] is given as “significant reduction”.

Source of the values: patent US8703215B2, “Agents from Ficus hispida for the amelioration of metabolic syndrome and related diseases” (Laila Nutraceuticals, priority 2009, dated 2014).
